Measured values taken from PubChem BioAssay (NCI).
Where “and” joins values, the source holds several entries; their conditions need not be identical. Identical values can stand only once.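 Results reflect a 48-hour exposure of cells in 96-well plates to compound at five concentrations. GI50 = concentration required for 50% inhibition of growth. TGI: total growth inhibition.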

Experiments:
Experiment in all cases: NCI anticancer screen, dose series, 48 h
786-0 renal = test system: 786-0 renal
BT-549 breast = test system: BT-549 breast
KM12 colon = test system: KM12 colon
UACC-257 melanoma = test system: UACC-257 melanoma
SR leukemia = test system: SR leukemia
UO-31 renal = test system: UO-31 renal
NCI-H23 lung = test system: NCI-H23 lung
SN12C renal = test system: SN12C renal
DU-145 prostate = test system: DU-145 prostate
HCT-116 colon = test system: HCT-116 colon

## CNCCNc1nc2ccccc2c2c(=O)c3cccc(C)c3sc12
786-0 renal
  GI50: 4.07 µM
  TGI: 11.5 µM
BT-549 breast
  GI50: 5.34 µM
  TGI: 12.1 µM
KM12 colon
  GI50: 1.11 µM
  TGI: 2.88 µM
UACC-257 melanoma
  GI50: 0.944 µM
  TGI: 1.95 µM
SR leukemia
  GI50: 0.94 µM
  TGI: 2.51 µM
UO-31 renal
  GI50: 0.79 µM
  TGI: 7.12 µM
NCI-H23 lung
  GI50: 5.13 µM
  TGI: 11.7 µM
SN12C renal
  GI50: 2.04 µM
  TGI: 8.37 µM
DU-145 prostate
  GI50: 1.89 µM
  TGI: 6.52 µM
HCT-116 colon
  GI50: 0.818 µM
  TGI: 1.57 µM

## N=C1/C(=C2\Nc3ccccc3S2)CC(=O)N1c1ccc(SC(F)F)cc1
786-0 renal
  GI50: 3.23 µM
  TGI: > 100 µM
BT-549 breast
  GI50: > 100 µM
  TGI: > 100 µM
KM12 colon
  GI50: 8.13 µM
  TGI: > 100 µM
UACC-257 melanoma
  GI50: > 100 µM
  TGI: > 100 µM
SR leukemia
  GI50: 2.21 µM
  TGI: > 100 µM
UO-31 renal
  GI50: 7.38 µM
  TGI: > 100 µM
NCI-H23 lung
  GI50: 18.7 µM
  TGI: > 100 µM
SN12C renal
  GI50: > 100 µM
  TGI: > 100 µM
DU-145 prostate
  GI50: 77.1 µM
  TGI: > 100 µM
HCT-116 colon
  GI50: 8.89 µM
  TGI: > 100 µM

## O=C1NC(=O)C(c2c[nH]c3ccccc23)=C1c1ccccc1
786-0 renal
  GI50: > 25 µM
  TGI: > 25 µM
BT-549 breast
  GI50: > 25 µM
  TGI: > 25 µM
KM12 colon
  GI50: > 25 µM
  TGI: > 25 µM
UACC-257 melanoma
  GI50: > 25 µM
  TGI: > 25 µM
SR leukemia
  GI50: > 25 µM
  TGI: > 25 µM
UO-31 renal
  GI50: > 24 µM
  TGI: > 25 µM
NCI-H23 lung
  GI50: > 25 µM
  TGI: > 25 µM
SN12C renal
  GI50: > 25 µM
  TGI: > 25 µM
DU-145 prostate
  GI50: > 25 µM
  TGI: > 25 µM
HCT-116 colon
  GI50: > 25 µM
  TGI: > 25 µM

## O=c1[nH]c(SCc2ccccc2[N+](=O)[O-])nc2nc[nH]c12
786-0 renal
  TGI: > 100 µM
BT-549 breast
  TGI: > 100 µM
KM12 colon
  TGI: > 100 µM
UACC-257 melanoma
  TGI: > 100 µM
SR leukemia
  TGI: > 100 µM
UO-31 renal
  GI50: > 100 µM and 35.1 µM
  TGI: > 100 µM
NCI-H23 lung
  TGI: > 100 µM
SN12C renal
  TGI: > 100 µM
DU-145 prostate
  TGI: > 100 µM
HCT-116 colon
  TGI: > 100 µM

## CC12CC(=O)C3C(CCC4=CC(=O)CCC43C)C1CC=C2CC(=O)O (stereo unspecified)
786-0 renal
  TGI: > 100 µM
BT-549 breast
  TGI: > 100 µM
KM12 colon
  TGI: > 100 µM
UACC-257 melanoma
  TGI: > 100 µM
SR leukemia
  TGI: > 100 µM
UO-31 renal
  TGI: > 100 µM
NCI-H23 lung
  TGI: > 100 µM
SN12C renal
  TGI: > 100 µM
DU-145 prostate
  TGI: > 100 µM
HCT-116 colon
  TGI: > 100 µM

## OCc1ccc(N(Cc2ccc(F)cc2)CC2CCC2)cc1Cl
786-0 renal
  GI50: 12.3 µM
  TGI: 25.8 µM
BT-549 breast
  GI50: 17.5 µM
  TGI: 32.3 µM
KM12 colon
  GI50: 14 µM
  TGI: 27.8 µM
UACC-257 melanoma
  GI50: 1.53 µM
  TGI: 7.78 µM
SR leukemia
  GI50: 11.7 µM
  TGI: 29 µM
UO-31 renal
  GI50: 8.3 µM
  TGI: 21 µM
NCI-H23 lung
  GI50: 10.7 µM
  TGI: 24.7 µM
SN12C renal
  GI50: 12 µM
  TGI: 24.7 µM
DU-145 prostate
  GI50: 15 µM
  TGI: 28.5 µM
HCT-116 colon
  GI50: 1.85 µM
  TGI: 11.5 µM

## O=C1/C(=C/c2ccccc2[N+](=O)[O-])COc2ccc(O)c(O)c21
786-0 renal
  GI50: 0.805 µM
  TGI: 4.74 µM
BT-549 breast
  GI50: 0.882 µM
  TGI: 4.02 µM
KM12 colon
  GI50: 1.55 µM
  TGI: 3.72 µM
UACC-257 melanoma
  GI50: 1.42 µM
  TGI: 4.06 µM
SR leukemia
  GI50: 0.476 µM
  TGI: > 100 µM
UO-31 renal
  GI50: 0.295 µM
  TGI: 2.03 µM
NCI-H23 lung
  GI50: 1.54 µM
  TGI: 5.22 µM
SN12C renal
  GI50: 0.679 µM
  TGI: 6.05 µM
DU-145 prostate
  GI50: 0.807 µM
  TGI: 2.36 µM
HCT-116 colon
  GI50: 0.297 µM
  TGI: 1.1 µM

## N#Cc1ccc(/C=C/C(=O)c2ccccc2)cc1
786-0 renal
  GI50: 15.9 µM and 14.6 µM
  TGI: > 52.2 µM and 29.2 µM
BT-549 breast
  GI50: 15.2 µM and 16.7 µM
  TGI: 29.3 µM and 30.5 µM
KM12 colon
  GI50: 1.79 µM and 1.83 µM
  TGI: 3.46 µM and 3.54 µM
UACC-257 melanoma
  GI50: 13.6 µM and 15.6 µM
  TGI: 26.4 µM and 29.5 µM
SR leukemia
  GI50: 1.88 µM and 1.52 µM
  TGI: 6.11 µM
UO-31 renal
  GI50: 2.8 µM and 11.5 µM
  TGI: 7.98 µM and 23.9 µM
NCI-H23 lung
  GI50: 10.8 µM and 15.4 µM
  TGI: 24.3 µM and 33.2 µM
SN12C renal
  GI50: 14.8 µM and 14.2 µM
  TGI: 28.3 µM and 27.7 µM
DU-145 prostate
  GI50: 13.4 µM and 12.3 µM
  TGI: 26.2 µM and 24.9 µM
HCT-116 colon
  GI50: 1.51 µM and 1.72 µM
  TGI: 3.17 µM

## CCc1ccc([O-])c(C=NCCCN(C)CCCN=Cc2cc(C)ccc2[O-])c1.[Co+3].[N-]=[N+]=[N-]
786-0 renal
  GI50: 43.1 µg/mL
  TGI: 50 µg/mL
BT-549 breast
  GI50: 50 µg/mL
  TGI: 50 µg/mL
KM12 colon
  GI50: 50 µg/mL and > 150 µg/mL
  TGI: 50 µg/mL and > 150 µg/mL
UACC-257 melanoma
  GI50: 50 µg/mL and > 150 µg/mL
  TGI: 50 µg/mL and > 150 µg/mL
SR leukemia
  GI50: 36.4 µg/mL
  TGI: 50 µg/mL
UO-31 renal
  GI50: 50 µg/mL and 84.2 µg/mL
  TGI: 50 µg/mL and > 150 µg/mL
NCI-H23 lung
  GI50: 50 µg/mL and 33.8 µg/mL
  TGI: 50 µg/mL and 129 µg/mL
SN12C renal
  GI50: 50 µg/mL and 61.8 µg/mL
  TGI: 50 µg/mL and > 150 µg/mL
DU-145 prostate
  GI50: 11.6 µg/mL
  TGI: 50 µg/mL
HCT-116 colon
  GI50: 50 µg/mL and 56.2 µg/mL
  TGI: 50 µg/mL and > 150 µg/mL
